The IC50 is the point on the concentration scale where inhibition reaches its midpoint.

This assay relates to C. albicans biofilms. As to the kind of experiment: Susceptibility testing of preformed C. albicans biofilms in CaBChip (FUN 1 fluorescence). Type of assay: cell-based, Candida albicans strain SC5314. The following applies: 24 h preformed biofilms on CaBChip, 24 h drug exposure; for SMIC50 / SMIC80: FUN 1 staining. As for the experimental part: A four-factor, two-level factorial design was performed using MINITAB (Minitab Solutions Inc., State College, Pa.) and DESIGN EXPERT (Stat-Ease Inc., Minneapolis, Minn.) software to obtain optimal conditions of media concentration, seeding density, collagen concentration and PSMA coating concentration for wash-resistant biofilm growth on the CaBChip. The response (output) metrics were true biofilm yield and robust attachment, measured using microarray scanner and light microscope. For preparation of inocula for printing and biofilm formation in the CaBChip, cells harvested from overnight YPD cultures were washed twice in sterile phosphate buffered saline (PBS; 10 mM phosphate buffer, 2.7 mM potassium chloride, 137 mM sodium chloride (pH 7.4) (Sigma) by centrifugation at 3000 g. The cells were then resuspended in Reconstruction buffer (0.2N NaOH solution with 2.2% (wt/vol) Sodium Bicarbonate and 4.8% (wt/vol) HEPES). One hundred fold dilutions of the suspended cells were prepared and counted using a hemocytometer on a bright field microscope. Following count, a suspension of cells was prepared in reconstruction buffer at a cell density of 5×10^7 cells/mL, which was diluted ten times by addition of 10×RPMI-1640 supplemented with L-glutamine and buffered with morpholinepropanesulfonic acid (Angus Buffers and Chemicals, Niagara Falls, N.Y.) containing collagen (1.8 mg/ml) (Type 1 from rat tail, BD Biosciences, Bedford, Mass.), to give a final concentration of cells of […]. The suspension containing yeast cells, collagen and media was printed (50 nL per spot) on the functionalized PSMA-coated glass slides using a microarray spotter (Omnigrid Micro, Digilab Inc., Holliston, Mass.). Printing was carried out by non-contact deposition using conically tapered 190μ orifice ceramic tips (Digilab). The resulting spots were approximately 700μ in diameter, spaced 1.2 mm apart; spots were printed in an array of 48 rows and 16 columns. In a standard print nm, the tips were primed, rinsed in running water and vacuum dried twice after each loading and printing step. The cell suspension was kept on ice to prevent the gelation of collagen before printing and agitated gently just prior to placement on the printing robot to ensure a uniformly mixed cell suspension. A relative humidity of 97% was maintained during printing to prevent the drying of the biofilm spots. All microarray operations such as aspiration, dispensing, priming, printing and spatial distribution of array were controlled by AxSys program (Digilab). All surfaces, including the source plate station, wash and vacuum station, vacuum slide platter and printing chamber were sterilized by wiping with 70% isopropanol. In our experience, these procedures ensure that there is no detectable contamination of wells in the plates or of spots on the microarray. After printing, the slides were placed inside humidifier chambers (Arraylt Corporation, Sunnyvale, Calif.), which were placed inside a 37 C incubator over different periods of time to allow for biofilm formation.
FUN 1 [2-chloro-4-(2,3-dihydro-3-methyl-(benzo-1,3-thiazol-2-yl)-methylidene)-1-phenylquinolinium iodide] (Invitrogen Corp., Carlsbad, Calif.) was used to stain and determine viability (levels of metabolic activity) of C. albicans cells within the biofilms formed in the chips. This membrane-permeable fluorescent dye is internalized and processed by metabolically active fungal cells, and has excitation and emission spectra that are compatible with the sets of lasers and filters installed in most microarray scanners. Briefly, the CaBChip was stained with 0.5 tM FUN 1, by simply dunking the entire CaBChip in a staining jar, and incubated in the dark at 37° C. for 30 min. Following incubation, the chip was washed three times by dunking in PBS in order to remove excess stain. The slides were then air-dried and scanned in a microarray scanner (Genepix Personal4100A, Axon Instruments, Union City, Calif.). […]

Molecules are shown by their SMILES. Some results are limits rather than exact numbers.

For `OC(Cn1cncn1)(Cn1cncn1)c1ccc(F)cc1F` [fluconazole], the “susceptibility of biofilms formed on CaBChip (in words)” value was “intrinsically resistant to fluconazole”, the SMIC50 was > 1,024 μg/ml and the SMIC80 is on record as > 1,024 μg/ml. Moreover, the IC50 (Candida albicans, FUN 1 fluorescence, Hill equation fit, read-out: calculated IC50) was above 1020 µg/mL.
As to `C[C@@H]1[C@H](O)[C@@H](C)/C=C/C=C/C=C/C=C/C=C/C=C/C=C/[C@H](O[C@@H]2O[C@H](C)[C@@H](O)[C@H](N)[C@@H]2O)C[C@@H]2O[C@](O)(C[C@@H](O)C[C@@H](O)[C@H](O)CC[C@@H](O)C[C@@H](O)CC(=O)O[C@H]1C)C[C@H](O)[C@H]2C(=O)O` [amphotericin B], the “susceptibility of biofilms formed on CaBChip (in words)” value is recorded as “effective against biofilms formed on CaBChip, but only at relatively high concentrations”; the SMIC50 worked out at 0.5 µg/mL; the SMIC80 worked out at 1 µg/mL. In addition, the “calculated IC50” value (FUN 1 fluorescence, Hill equation fit) was 0.27 ± 0.04 µg/mL.

The values above are taken from patent US10465227B2, “Microbial testing devices, methods of making microbial testing devices and methods of identifying novel antimicrobial drug candidates” (BOARD OF REGENTS, THE UNIVERSITY OF TEXAS SYSTEM, priority 2010, dated 2019).
